The values below come from ChEMBL document CHEMBL4699610, “Synthesis and biological evaluation of anti-tubercular activity of Schiff bases of 2-Amino thiazoles” (2020).

≈ marks a conversion by molar mass, not a printed value.

For the assay, the system named is Mycobacterium tuberculosis. Briefly: Antitubercular activity against Mycobacterium tuberculosis H37Rv assessed as bacterial growth inhibition by MABA relative to control. The class given is functional.
Take `CO[C@H]1/C=C/O[C@@]2(C)Oc3c(C)c(O)c4c(O)c(c(/C=N/N5CCN(C)CC5)c(O)c4c3C2=O)NC(=O)/C(C)=C\C=C\[C@H](C)[C@H](O)[C@@H](C)[C@@H](O)[C@@H](C)[C@H](OC(C)=O)[C@@H]1C` [RIFAMPIN]: the MIC is 0.8 µg/mL (≈ 0.972 µM).

In the case of `COc1cc(/C=C\Nc2nc(-c3ccc(NC(=O)c4ccccc4)cc3)cs2)cc(OC)c1OC`, the MIC came to 25 µg/mL (≈ 51.3 µM).

On to `CC[C@@H](CO)NCCN[C@@H](CC)CO` [ETHAMBUTOL], for which the MIC worked out at 3.2 µg/mL (≈ 15.7 µM).

As for `O=C1CCC(=O)N1c1ccc(-c2csc(N/C=C\c3cccc(Cl)c3)n2)cc1`, the minimal inhibitory concentration (MIC) came out at 25 µg/mL (≈ 61 µM).

On to `Nc1nc(-c2ccc(N3C(=O)CCC3=O)cc2)cs1`, for which the MIC amounted to 6.25 µg/mL (≈ 22.9 µM).

On to `CN[C@@H]1[C@H](O[C@H]2[C@H](O[C@H]3[C@H](O)[C@@H](O)[C@H](N=C(N)N)[C@@H](O)[C@@H]3N=C(N)N)O[C@@H](C)[C@]2(O)C=O)O[C@@H](CO)[C@H](O)[C@H]1O` [STREPTOMYCIN], for which the MIC came out at 0.8 µg/mL (≈ 1.38 µM).

For the compound `Nc1nc(-c2ccc(NC(=O)c3ccccc3)cc2)cs1`, the MIC turned out to be 50 µg/mL (≈ 169 µM).

Regarding `O=C1CCC(=O)N1c1ccc(-c2csc(N/C=C\c3ccc(O)cc3)n2)cc1`, the MIC stood at 100 µg/mL (≈ 255 µM).

Consider `COc1cc(/C=C\Nc2nc(-c3ccc(N4C(=O)c5ccccc5C4=O)cc3)cs2)cc(OC)c1OC`, for which the MIC is 6.25 µg/mL (≈ 12.2 µM).

Take `O=C(Nc1ccc(-c2csc(N/C=C\c3ccccc3[N+](=O)[O-])n2)cc1)c1ccccc1`: the MIC amounted to 6.25 µg/mL (≈ 14.1 µM).

With `COc1cc(/C=C\Nc2nc(-c3ccc(N4C(=O)CCC4=O)cc3)cs2)cc(OC)c1OC`, the MIC was found to be 25 µg/mL (≈ 53.7 µM).

For the compound `O=C1c2ccccc2C(=O)N1c1ccc(-c2csc(N/C=C\c3ccccc3[N+](=O)[O-])n2)cc1`, the MIC was found to be 25 µg/mL (≈ 53.4 µM).

For `Nc1nc(-c2ccc(N3C(=O)c4ccccc4C3=O)cc2)cs1`, the MIC is 12.5 µg/mL (≈ 38.9 µM).

Regarding `O=C(Nc1ccc(-c2csc(N/C=C\c3ccc(O)cc3)n2)cc1)c1ccccc1`, the MIC was found to be 6.25 µg/mL (≈ 15.1 µM).

Consider `NNC(=O)c1ccncc1` [ISONIAZID], for which the minimal inhibitory concentration (MIC) is 1.6 µg/mL (≈ 11.7 µM).

Consider `O=C1CCC(=O)N1c1ccc(-c2csc(N/C=C\c3ccccc3[N+](=O)[O-])n2)cc1`, for which the MIC is 100 µg/mL (≈ 238 µM).

`O=C(O)c1cn(C2CC2)c2cc(N3CCNCC3)c(F)cc2c1=O` [CIPROFLOXACIN]: the MIC was found to be 3.12 µg/mL (≈ 9.43 µM).

Take `O=C1CCC(=O)N1c1ccc(-c2csc(N/C=C\c3ccc(F)cc3)n2)cc1`: the MIC stood at 12.5 µg/mL (≈ 31.8 µM).

For `O=C(Nc1ccc(-c2csc(N/C=C\c3cccc(Cl)c3)n2)cc1)c1ccccc1`, the MIC was determined as 25 µg/mL (≈ 57.9 µM).

Consider `NC(=O)c1cnccn1` [PYRAZINAMIDE], for which the MIC was found to be 3.12 µg/mL (≈ 25.4 µM).

Consider `O=C(Nc1ccc(-c2csc(N/C=C\c3ccc(F)cc3)n2)cc1)c1ccccc1`, for which the MIC is 12.5 µg/mL (≈ 30.1 µM).
